Measurements as given in US20250230193A1, “CYCLIC COMPOUND HAVING SELECTIVE KRAS INHIBITORY EFFECT ON HRAS AND NRAS” (CHUGAI SEIYAKU KABUSHIKI KAISHA, priority 2022, published 2025).
*1 amine or outer side, *2 acyl side, *3 side chain or, on linkers, in order; H or OH if unused. Where a SMILES comes first, the peptide text is derived from it. Bridges are numbered along the chain shown (N, C = ends). [ ]: non-standard residue; d: D form. The star is where a group is joined. hPhe(3,5-F2-4-CF3) = N[C@@H](CCc1cc(F)c(C(F)(F)F)c(F)c1)C(=O)O; NPrPhe(4-CF3) = CCCN[C@@H](Cc1ccc(C(F)(F)F)cc1)C(=O)O; NMeGly(cPent) = CN[C@H](C(=O)O)C1CCCC1; X9 = C[C@@](N[*:1])(C(=O)[*:2])C1CC1; NMeD = CN[C@@H](CC(=O)O)C(=O)O; NMeL = CN[C@@H](CC(C)C)C(=O)O; Morpholide = C1CN(*)CCO1; Aze = O=C(O)[C@@H]1CCN1; Sar = CNCC(=O)O

Assays:
[1] = target: GDP-bound HRAS wild-type protein (Homo sapiens, UniProt P01112); experiment: Binding to HRAS by surface plasmon resonance (SPR), Single Cycle Kinetics; conditions: for HRAS/KRAS (ratio of KD value with respect to HRAS to KD value with respect to KRAS): GDP-bound HRAS wild-type vs GDP-bound KRAS wild-type
Sequence of GDP-bound HRAS wild-type protein (P01112 whole entry): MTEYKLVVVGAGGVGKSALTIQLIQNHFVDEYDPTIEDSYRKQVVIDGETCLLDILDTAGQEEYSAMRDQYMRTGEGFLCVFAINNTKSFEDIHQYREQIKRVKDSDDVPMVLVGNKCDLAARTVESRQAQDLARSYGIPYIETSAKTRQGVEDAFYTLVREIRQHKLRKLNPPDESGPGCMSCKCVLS

[2] = target: GDP-bound NRAS wild-type protein (Homo sapiens, UniProt P01111); experiment: Binding to NRAS by surface plasmon resonance (SPR), Single Cycle Kinetics; conditions: for NRAS/KRAS (ratio of KD value with respect to NRAS to KD value with respect to KRAS): GDP-bound NRAS wild-type vs GDP-bound KRAS wild-type
Sequence of GDP-bound NRAS wild-type protein (P01111 whole entry): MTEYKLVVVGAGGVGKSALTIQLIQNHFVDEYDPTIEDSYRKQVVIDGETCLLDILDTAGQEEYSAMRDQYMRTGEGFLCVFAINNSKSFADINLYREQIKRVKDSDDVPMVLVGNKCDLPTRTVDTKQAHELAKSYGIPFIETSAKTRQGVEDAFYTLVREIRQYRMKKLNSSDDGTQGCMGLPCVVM

| Compound | HRAS/KRAS (ratio of KD value with respect to GDP-bound HRAS wild-type protein to KD value with respect to KRAS) ([1]; SPR) | NRAS/KRAS (ratio of KD value with respect to GDP-bound NRAS wild-type protein to KD value with respect to KRAS) ([2]; SPR) | other results |
| --- | --- | --- | --- |
| CCO[C@@H]1C[C@H]2C(=O)NC3(CCC3)C(=O)N(C)[C@@H](C3CCCC3)C(=O)N(C)[C@H](C(=O)N(C)C)CC(=O)N(C)[C@@H](Cc3cccc(C#N)c3)C(=O)N[C@@H]([C@@H](C)CC)C(=O)N(C)CC(=O)N(C)[C@H]3CCCCCN(C3=O)[C@@H](Cc3ccc(F)cc3)C(=O)N(C)CC(=O)N[C@@H](CCc3cc(F)c(C(F)(F)F)c(F)c3)C(=O)N2C1 [PP1156] | – | – | HRAS/KRAS (ratio of KD value with respect to HRAS to KD value with respect to KRAS) ([1]; SPR): B (a compound having 3 or more and less than 10 is denoted as B); NRAS/KRAS (ratio of KD value with respect to NRAS to KD value with respect to KRAS) ([2]; SPR): B (a compound having 3 or more and less than 10 is denoted as B) |
| CC[C@H](C)[C@@H]1NC(=O)[C@H](CC(C)C)N(C)C(=O)C[C@@H](C(=O)N(C)C)N(C)C(=O)[C@H](C2CCCC2)N(C)C(=O)C2(CCC2)NC(=O)[C@@H]2CC(F)(F)CN2C(=O)[C@H](CCc2cc(F)c(C(F)(F)F)c(F)c2)NC(=O)CN(C)C(=O)[C@H](Cc2ccc(C(F)(F)F)cc2)N2CCCC[C@@H](C2=O)N(C)C(=O)CN(C)C1=O [PP0577] | C (A compound having a KD ratio of 0.1 or more and less than 3 is denoted as C) | C (A compound having a KD ratio of 0.1 or more and less than 3 is denoted as C) | – |
| CC[C@H](C)[C@@H]1NC(=O)[C@H](CC(C)C)N(C)C(=O)C[C@@H](C(=O)N2CCCC2)N(C)C(=O)[C@H](C2CCCC2)N(C)C(=O)C2(CCCC2)NC(=O)[C@@H]2CCCN2C(=O)[C@H](CCc2cc(F)c(C(F)(F)F)c(F)c2)NC(=O)CN(C)C(=O)[C@H](Cc2ccc(C(F)(F)F)cc2)N2CCCCC[C@@H](C2=O)N(C)C(=O)CN(C)C1=O [PP0509] | B (a compound having 3 or more and less than 10 is denoted as B) | B (a compound having 3 or more and less than 10 is denoted as B) | – |
| CC[C@H](C)[C@@H]1NC(=O)[C@H](CC(C)C)N(C)C(=O)C[C@@H](C(=O)N2CCOCC2)N(CC)C(=O)[C@H](C2CCCC2)N(C)C(=O)C2(CCC2)NC(=O)[C@@H]2[C@H](O)CCN2C(=O)[C@H](CCc2cc(F)c(C(F)(F)F)c(F)c2)NC(=O)CN(C)C(=O)[C@H](Cc2ccc(C(F)(F)F)cc2)N2CCCCC[C@@H](C2=O)N(C)C(=O)CN(C)C1=O [PP0955] | – | – | HRAS/KRAS (ratio of KD value with respect to HRAS to KD value with respect to KRAS) ([1]; SPR): A (a compound having 10 or more and less than 20 is denoted as A); NRAS/KRAS (ratio of KD value with respect to NRAS to KD value with respect to KRAS) ([2]; SPR): A (a compound having 10 or more and less than 20 is denoted as A) |
| CC[C@H](C)[C@@H]1NC(=O)[C@H](COC)N(C)C(=O)C[C@@H](C(=O)N2CCCCC2)N(C)C(=O)[C@H](C2CCCC2)N(C)C(=O)C2(CC(C)(C)C2)NC(=O)[C@@H]2C[C@@H](OC3CCCC3)CN2C(=O)[C@H](CCc2cc(F)c(C(F)(F)F)c(F)c2)NC(=O)CN(C)C(=O)[C@H](Cc2ccc(C(F)(F)F)cc2)N2CC/C=C\C[C@@H](C2=O)N(C)C(=O)CN(C)C1=O [PP2665] | – | – | HRAS/KRAS (ratio of KD value with respect to GDP-bound HRAS wild-type protein to KD value with respect to KRAS) ([1]; class symbols): A (a compound having 10 or more and less than 20 is denoted as A); NRAS/KRAS (ratio of KD value with respect to GDP-bound NRAS wild-type protein to KD value with respect to KRAS) ([2]; class symbols): A (a compound having 10 or more and less than 20 is denoted as A) |
| CC[C@H](C)[C@@H]1NC(=O)[C@H](CC(C)C)N(C)C(=O)C[C@@H](C(=O)N2CCOCC2)N(C)C(=O)[C@H](C2CCCC2)N(C)C(=O)C2(CCCC2)NC(=O)[C@@H]2CCCN2C(=O)[C@H](CCc2cc(F)c(C(F)(F)F)c(F)c2)NC(=O)CN(C)C(=O)[C@H](Cc2ccc(C(F)(F)F)cc2)N2CCCC[C@@H](C2=O)N(C)C(=O)[C@H](C)NC1=O [PP0543] | B (a compound having 3 or more and less than 10 is denoted as B) | B (a compound having 3 or more and less than 10 is denoted as B) | – |
| CCCN1C(=O)CN(C)C(=O)[C@@H]2CCN2C(=O)[C@H]([C@@H](C)CC)NC(=O)[C@H](CC(C)C)N(C)C(=O)C[C@@H](C(=O)N2CCOCC2)N(C)C(=O)[C@H](C2CCCC2)N(C)C(=O)[C@](C)(C2CC2)NC(=O)[C@@H]2CCCN2C(=O)[C@H](CCc2cc(F)c(C(F)(F)F)c(F)c2)NC(=O)CN(C)C(=O)[C@@H]1Cc1ccc(C(F)(F)F)cc1 [PP0772] ([NMeL]I[Aze][Sar][NPrPhe(4-CF3)][Sar][hPhe(3,5-F2-4-CF3)]P[X9][NMeGly(cPent)][NMeD]-Morpholide; lactam N-11) | B (a compound having 3 or more and less than 10 is denoted as B) | B (a compound having 3 or more and less than 10 is denoted as B) | – |
